Test results taken from patent US9593062B2, “Means and methods for treating and/or preventing natural AHR ligand-dependent cancer” (priority 2011, dated 2017).
Read-outs that look alike come from different tables or passages of the source.

Legend:
AHR [1] = molecular target: T1, AHR (Homo sapiens, UniProt P35869); assay: Inhibition of ligand-induced AHR activation and AHR-regulated gene expression by an AHR antagonist; assay type: cell-based; set-up: Malignant glioma cell lines as well as GIC express the AHR constitutively; endogenous in cells
T1 sequence (P35869 11-848): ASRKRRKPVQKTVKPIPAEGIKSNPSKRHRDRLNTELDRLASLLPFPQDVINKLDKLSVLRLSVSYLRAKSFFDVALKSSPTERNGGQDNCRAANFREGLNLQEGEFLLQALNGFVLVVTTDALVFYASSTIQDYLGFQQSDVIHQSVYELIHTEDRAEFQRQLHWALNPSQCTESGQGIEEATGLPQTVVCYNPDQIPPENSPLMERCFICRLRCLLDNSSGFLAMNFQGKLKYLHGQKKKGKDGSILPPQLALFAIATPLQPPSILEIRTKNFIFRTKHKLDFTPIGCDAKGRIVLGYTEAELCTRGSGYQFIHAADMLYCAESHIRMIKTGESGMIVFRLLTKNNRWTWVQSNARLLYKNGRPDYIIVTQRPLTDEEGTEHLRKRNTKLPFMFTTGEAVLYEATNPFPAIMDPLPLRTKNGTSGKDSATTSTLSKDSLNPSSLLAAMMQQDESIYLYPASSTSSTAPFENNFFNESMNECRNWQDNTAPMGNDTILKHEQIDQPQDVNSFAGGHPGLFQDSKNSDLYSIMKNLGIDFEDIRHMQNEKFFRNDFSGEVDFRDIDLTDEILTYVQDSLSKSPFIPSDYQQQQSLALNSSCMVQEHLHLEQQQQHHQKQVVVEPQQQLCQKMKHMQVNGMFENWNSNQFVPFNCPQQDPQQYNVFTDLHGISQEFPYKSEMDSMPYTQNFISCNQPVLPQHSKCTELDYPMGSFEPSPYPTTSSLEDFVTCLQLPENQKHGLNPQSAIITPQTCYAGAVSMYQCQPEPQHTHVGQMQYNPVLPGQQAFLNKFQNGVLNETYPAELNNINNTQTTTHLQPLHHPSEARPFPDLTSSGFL
Procedure: TDO expression was analysed by immunohistochemistry in human tumors. Its relevance for Trp degradation was determined using genetic knockdown or overexpression of TDO. Trp and Kyn were measured in cell culture supernatants, human sera and xenograft tissue by HPLC. Mixed leukocyte reactions, chromium release, ELISpot and staining of immune cells in tumor tissues were used to assess the immune effects of TDO activity. Cell cycle analysis, matrigel and spheroid invasion assays, scratch assays, sphere formation assays and clonogenicity assays were employed to analyse the autocrine effects of TDO activity. All animal procedures followed the institutional laboratory animal research guidelines and were approved by the governmental authorities. Orthotopic implantation of human glioma cells with and without stable knockdown of TDO into CD1nu/nu mice, s.c. injection of these cells into NK-depleted or wildtype CD1nu/nu mice and s.c. injection of murine Tdo-proficient and Tdo-deficient GL261 cells into syngeneic C57BL/6N mice were performed to analyse the autocrine and paracrine effects of TDO activity in vivo. Microarray analysis of Kyn-treated human glioma cells was performed to identify signalling pathways activated by Kyn. Analysis of AHR translocation, DRE-luciferase assays and radioligand binding assays confirmed activation of the AHR by Kyn. […]

AHR [2] = molecular target: T1, AHR; assay: ethoxyresorufin-O-deethylase (EROD) assay, induction of AHR target gene CYP1A1; assay type: cell-based
Description: Such an inhibition may occur if the compound binds to an interaction domain of the AHR or its ligand binding domain and thereby inhibits the biological function of the AHR as specified elsewhere herein. Preferably, the inhibitor blocks the ligand binding domain for kynurenin, i.e. interacts with the ligand binding domain of the PAS-B domain or the ligand binding domain formed by Tyr310, Phe324, His326 and Arg352 (amino acid positions corresponding to human AHR). Alternatively, the compound may elicit an allosteric effect on the AHR polypeptide resulting in an inhibition of the biological function as well. An indirect inhibition can be elicited by a compound which reduces or prevents the transcription and/or translation of AHR polypetides and, thus, the amount of available AHR polypeptides in a cell. The AHR inhibitor shall at least reduce the AHR activity to a statistically significant extent. Of course, preferably, the inhibitor will reduce the AHR activity below the detectable limits. […] The activity of AHR can be detected by determining induction of the gene expression of its endogenous target gene CYP1A1 by an ethoxyresorufin-O-deethylase (EROD) assay.

AHR [3] = molecular target: T2, AHR (Mus musculus, UniProt P30561); assay: AHR nuclear translocation (GFP-tagged AHR, mouse hepatoma cells); assay type: cell-based; conditions: after 1 h; 50 μM Kyn
T2 construct: expressed in transfected cells; host or cells: Tao BpRc1c mouse hepatoma cells
T2 sequence (P30561 10-848): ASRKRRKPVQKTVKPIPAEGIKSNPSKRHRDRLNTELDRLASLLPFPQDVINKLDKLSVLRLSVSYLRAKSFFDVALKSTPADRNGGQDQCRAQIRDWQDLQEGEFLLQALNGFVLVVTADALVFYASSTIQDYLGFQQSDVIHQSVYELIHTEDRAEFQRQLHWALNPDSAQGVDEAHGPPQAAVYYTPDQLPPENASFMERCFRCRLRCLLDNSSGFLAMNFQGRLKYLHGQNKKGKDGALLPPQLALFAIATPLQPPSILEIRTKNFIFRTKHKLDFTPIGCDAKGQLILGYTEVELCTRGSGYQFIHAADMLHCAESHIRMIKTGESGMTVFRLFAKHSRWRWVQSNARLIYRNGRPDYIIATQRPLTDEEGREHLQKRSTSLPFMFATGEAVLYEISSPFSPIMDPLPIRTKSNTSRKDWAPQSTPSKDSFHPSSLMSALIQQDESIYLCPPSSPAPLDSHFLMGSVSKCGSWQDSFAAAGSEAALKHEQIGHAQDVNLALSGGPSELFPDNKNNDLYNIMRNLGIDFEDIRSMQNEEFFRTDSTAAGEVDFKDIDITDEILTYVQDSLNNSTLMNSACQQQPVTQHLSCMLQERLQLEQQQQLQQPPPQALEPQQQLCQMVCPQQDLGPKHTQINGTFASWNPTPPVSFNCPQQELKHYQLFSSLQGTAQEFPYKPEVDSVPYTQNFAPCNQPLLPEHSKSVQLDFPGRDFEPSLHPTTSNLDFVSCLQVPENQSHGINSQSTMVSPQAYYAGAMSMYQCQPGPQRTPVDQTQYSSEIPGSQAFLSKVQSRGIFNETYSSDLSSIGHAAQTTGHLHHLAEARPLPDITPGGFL
Procedure: For detection of AHR translocation 7000 Tao BpRc1c cells with a GFP-tagged AHR per well were exposed to 50 μM Kyn or 50 μM Trp, fixed in 3.7% formaldehyde in PBS, permeabilised in 0.1% Triton X100, incubated with 1 μg/ml Hoechst 33342 (Invitrogen) and imaged on a BD Pathway™ Imager 855 in a non-confocal mode using a 20× U-Apo 340 objective (Olympus, NA 0.75). Further analysis of fluorescence intensity was performed using the Attovision software (BD Biosciences). In addition, the AHR protein content in the nuclear and the cytoplasmic fractions of LN-229 glioma cells was compared by immunoblotting.

T cells = assay: T cell proliferation (mixed leukocyte reaction, TCR-stimulated T cells); assay type: cell-based, human
Procedure: Glioma cells were seeded in 96-well plates in RPMI 1640 containing 10% FBS, 100 U/ml penicillin and 100 μg/ml streptomycin. 24 h after seeding […] irradiated (30 Gy) PBMC as stimulators and 2×10^5 PBMC from unrelated donors as responders were added. Six-day MLR were performed and cultures were pulsed with [3H]-methylthymidine (PerkinElmer, Waltham, Mass., USA) for the last 18 h. Cells were harvested, and radionuclide uptake was measured by scintillation counting. Experiments were repeated with six unrelated PBMC donors.

glioma cells = assay: Motility, clonogenic survival and sphere formation of glioma cells; assay type: cell-based, human
Procedure: Tumor weight was calculated using the equation: tumor weight (g)=(length (cm)×width (cm)2)×0.5. e, IFN-γ-release of T cells of mice bearing subcutaneous Tdo-expressing tumors (black bar) in comparison to T cells of mice bearing Tdo-deficient tumors (white bar) after restimulation with glioma lysates measured by ELISpot (n=3). f, Lysis of GL261 murine glioma cells by spleen cells of mice with Tdo-expressing GL261 tumors in comparison to those with a subcutaneous Tdo-deficient GL261 tumors measured by chromium release (n=4). g, Quantification of the migrated distances of sh-c (open squares) and sh-TDO (solid circles) cells into a collagen matrix (n=3, P=0.004, 0.0005 and 0.01 for 24, 48 and 72 h, respectively). h, Clonogenic survival of sh-c (white bar) and sh-TDO (black bar) U87 cells (n=3). i, Matrigel boyden chamber assay of U87 glioma cells in the absence or presence of 70 μM Trp without or with 30 μM or 60 μM Kyn (n=3). j, Clonogenic survival of LN-18 glioma cells in the absence or presence of 70 μM Trp without or with 30 μM or 60 μM Kyn (n=3). k, Representative cranial MRIs, H&E and nestin stainings of CD1 nu/nu mice implanted with sh-c (upper panel) or sh-TDO (lower panel) U87 glioma cells. […]

AHR response genes = assay: Microarray analysis of Kyn-treated U87 glioma cells; assay type: cell-based, human; conditions: U87, 100 μM Kyn, 8 h and 24 h
Procedure: U87 glioma cells were treated with 100 μM Kyn for 8 h or 24 h, after which the cells were harvested and RNA isolated using the RNAeasy-Kit (Qiagen). The RNA was subjected to microarray analyses as detailed in the Supplementary Methods. For each of the four treatments (8 h, 24 h, Kyn-treated, untreated) two arrays were hybridised and the mean log 2 ratios of gene expression in Kyn-treated vs. untreated samples were calculated. Further analyses of the data are detailed in the Supplementary Methods. For clinical samples microarray and clinical data were acquired from the REpository for Molecular BRAin Neoplasia DaTa (REMBRANDT) (Supplementary Methods). Survival analysis within the data set of untreated primary glioblastoma (n=362) of The Cancer Genome Atlas (TCGA) network was performed using the Kaplan-Meier-analysis module of the R2 microarray analysis and visualisation platform (http://r2.amc.nl).

AHR [4] = molecular target: T1, AHR
Procedure: Dual luciferase/renilla assays were performed as detailed in the Supplementary Methods. For analysis of DRE-driven reporter gene activity in response to various Trp metabolites, the pGL3-promotor expression plasmid and the control plasmid pRL-SV40, expressing renilla luciferase were used (Promega, Heidelberg, Germany).

AHR [5] = molecular target: T3, AHR (Mus musculus, UniProt P30561)
T3 sequence (P30561 1-848): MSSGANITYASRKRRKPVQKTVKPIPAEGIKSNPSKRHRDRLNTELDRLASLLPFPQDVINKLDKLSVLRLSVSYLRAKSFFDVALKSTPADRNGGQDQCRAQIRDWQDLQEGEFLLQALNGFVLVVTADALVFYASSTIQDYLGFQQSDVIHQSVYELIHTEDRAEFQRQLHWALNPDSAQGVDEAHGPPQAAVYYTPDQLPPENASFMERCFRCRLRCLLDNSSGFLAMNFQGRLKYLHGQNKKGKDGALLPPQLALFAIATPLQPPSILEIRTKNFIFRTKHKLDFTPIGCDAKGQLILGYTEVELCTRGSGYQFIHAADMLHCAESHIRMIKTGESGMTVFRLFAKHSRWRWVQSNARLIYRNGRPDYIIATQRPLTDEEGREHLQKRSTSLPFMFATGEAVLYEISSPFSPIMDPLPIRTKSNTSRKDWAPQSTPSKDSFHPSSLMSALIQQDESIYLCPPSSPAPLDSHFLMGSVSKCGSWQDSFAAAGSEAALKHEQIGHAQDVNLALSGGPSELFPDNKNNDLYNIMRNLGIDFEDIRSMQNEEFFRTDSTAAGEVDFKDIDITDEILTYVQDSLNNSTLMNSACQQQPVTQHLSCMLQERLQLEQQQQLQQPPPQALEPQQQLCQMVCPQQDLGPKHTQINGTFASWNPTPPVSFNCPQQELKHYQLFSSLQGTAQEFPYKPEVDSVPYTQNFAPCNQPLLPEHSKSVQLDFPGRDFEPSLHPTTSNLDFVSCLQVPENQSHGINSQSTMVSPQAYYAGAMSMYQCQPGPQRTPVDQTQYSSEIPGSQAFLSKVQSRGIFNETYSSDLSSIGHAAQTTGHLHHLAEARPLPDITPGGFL
Description: The data distribution is represented by box plots, showing the 25th and 75th percentile together with the median, whiskers represent the 10th and 90th percentile, respectively (P<0.001, one way ANOVA on ranks, followed by Dunns' method). d, AHR Western blots of two different nuclear and cytoplasmic fractions each of control (1,2), Kyn-treated (3,4) and TCDD-treated (5,6) human LN-229 glioma cells. e, Dioxinresponsive element (DRE) chemical activated luciferase gene expression in U87 glioma cells treated with indicated Kyn concentrations (n=2). f, Radioligand binding assay with indicated concentrations of L-3H-Kyn using mouse liver cytosol from Ahr-proficient and Ahr-deficient mice.
L-3H-Kyn with a specific activity of 11 Ci/mmol was obtained from Quotient Bioresearch (Radiochemicals) Ltd. (Cardiff, UK). The binding assays with L-3H-Kyn using mouse liver cytosol from Ahr-proficient and Ahr-deficient mice were performed. Specific binding was defined as the difference of radioactivity between Ahr-proficient and Ahr-deficient cytosol.

Activation of the AHR and upregulation of AHR-regulated gene expression in response to Kyn (AHR [1]; agonist Kyn) | EC50 (AHR [2]) | EC50 (AHR [4]) | Kd (AHR [5]) | Compound | Activation of the AHR by Kyn, TCDD and 3-MC (AHR [1]; three ligands: Kyn, TCDD, 3-methylcholanthrene) | Translocation of the AHR into the nucleus (AHR [3]) | Proliferation of T cell receptor-stimulated CD4+ and CD8+ T cells (T cells) | Allogeneic T cell proliferation with TDO knockdown glioma cells (T cells; 100 μM Kyn added to sh-TDO U87 cells (FIG. 2b)) | Motility and clonogenic survival of glioma cells (glioma cells; absence of Trp, 30 or 60 μM Kyn (FIG. 2i,j)) | Sphere formation of GIC (glioma cells; glioma-initiating cells) | Induction of AHR response genes (AHR response genes)
inhibited |  |  |  | COc1ccc(-c2cc(=O)c3ccccc3o2)cc1OC [3,4-DMF, 3,4-dimethoxylflavone] | inhibited the activation of the AHR by all three ligands |  |  |  |  |  | 
 | 12.3 µM | 36.6 µM | ~4 µM | Kynurenin |  | led to translocation of the AHR into the nucleus | concentration-dependently inhibited | prevented the restoration of T cell proliferation | restored motility and clonogenic survival | enhanced | broad induction of AHR response genes
